These results are taken from patent US20100028485A1, “TALAROMYCES EMERSONII ENZYME SYSTEMS” (priority 2006, published 2010).

What all share (format): biochemical, Talaromyces emersonii
In one assay the test system is EG VI. Nature of the assay: Effects of metal ions, chemical modification reagents, detergents and potential inhibitors on EG VI. The conditions noted are these: for EV VI activity, Enzyme + reagent (control = 100.0): Preincubation of enzyme with reagent for 30 min (50 C) prior to addition of substrate; for EGVI activity, Substrate + reagent (control = 100.0): Preincubation of substrate with reagent for 30 min (50 C) prior to addition of enzyme; for decrease in activity of EG VI: 1 mM metal ion, relative to control without metal ion. The method, then:
(§1) Substrate specificity on various polysaccharides and synthetic glycosides was evaluated by 15 measuring activity against a wide variety of carbohydrates (BBG, lichenan, CMC, other polysaccharides and synthetic glycosides) using the normal β-glucanase assay procedure. • Effects Of Metal Ions, Chemical Modification Reagents And Potential Inhibitors A range of monovalent, divalent and heavy metal ions, at final assay concentrations of 1.0 mM, were investigated for their potential effects on the activities of EG V, EG VI and EG VII, by incubating the enzymes with the chemicals and then conducting the normal enzyme assay. Finally, the inhibitor effects of glycosides, such as disaccharides, lactones and flavanoid glycosides on the purified enzymes were examined. Specified concentrations of each glycoside were included in normal assay cocktails and residual activity determined by comparison with controls (no glycoside present).
(§2) Activity was expressed as a % relative to a control (no metal ion present in incubation mixture). In general, heavy metal ions are thought to inactivate enzymes by forming covalent salts with cysteine, histidine or carboxyl groups. […] A selection of reagents known to modify amino acid R-groups in proteins were tested for their effects on EG V, EG VI and EG VII, both in the absence and presence of substrate (substrate-protective effects could be observed in this manner) (see Table 6).

Another assay deals with EG VII. Nature of the assay: Effects of metal ions, chemical modification reagents, detergents and potential inhibitors on EG VII. The conditions noted are these: for EG VII activity, Enzyme + reagent (control = 100.0): Preincubation of enzyme with reagent for 30 min (50 C) prior to addition of substrate; for EG VII activity, Substrate + reagent (control = 100.0): Preincubation of substrate with reagent for 30 min (50 C) prior to addition of enzyme. The procedure: as §1, §2

The next assay concerns EG V, EG VI and EG VII. The assay is described as follows: Effects of metal ions, reagents, phenolics and glycosides stated for all three enzymes. The conditions noted are these: for inhibition by sulphydryl reagents: in the presence or absence of substrate; for effect of phenolic substances on enzyme activity: pre-incubation of enzyme with compound in the absence of substrate. The method, then:
as §1, §2

The next assay deals with EG V. Nature of the assay: Effects of metal ions, chemical modification reagents, detergents and potential inhibitors on EG V. The conditions noted are these: for EG V activity, Enzyme + reagent (control = 100.0): Preincubation of enzyme with reagent for 30 min (50 C) prior to addition of substrate; for EG V activity, Substrate + reagent (control = 100.0): Preincubation of substrate with reagent for 30 min (50 C) prior to addition of enzyme. The procedure:
as §1, §2

Entries after “also recorded” stand apart in the source; their conditions may differ.

Consider `NC(=O)CI` [Iodoacetamide], for which, in the assay with EG VI, the “EV VI activity, Enzyme + reagent (control = 100.0)” value is 99.9 and the “EGVI activity, Substrate + reagent (control = 100.0)” value is listed as 122.6. Further, in the assay with EG VII, the “EG VII activity, Enzyme + reagent (control = 100.0)” value is on record as 101.6 and the “EG VII activity, Substrate + reagent (control = 100.0)” value was found to be 83.7. In addition, the “inhibition by sulphydryl reagents” value with EG V, EG VI and EG VII was “little or no inhibition”. Besides, in the assay on EG V, the “EG V activity, Enzyme + reagent (control = 100.0)” value came to 103.6 and the “EG V activity, Substrate + reagent (control = 100.0)” value is on record as 87.4.

With `[Mg+2]` [Mg^2+], the “decrease of EG VI activity by SO4^2− salt relative to Cl^− salt of same cation” value in the assay with EG VI (1 mM) was 50.1%. Besides, in the assay with EG V, EG VI and EG VII (1 mM metal ion), the “effect of metal ion on activity of all three enzymes” value is listed as “enhanced the activity”. In the assay on EG V (1 mM), the “decrease of EG V activity by SO4^2− salt relative to Cl^− salt of same cation” value was 54.2%.

`O=C(O)c1cc[c]([Hg+])cc1.[OH-]` [p-Hydroxymercuribenzoate]: in the assay with EG VI, the “EV VI activity, Enzyme + reagent (control = 100.0)” value was 98.3 and the “EGVI activity, Substrate + reagent (control = 100.0)” value was determined as 125.0. In the assay on EG VII, the “EG VII activity, Enzyme + reagent (control = 100.0)” value was determined as 99.5 and the “EG VII activity, Substrate + reagent (control = 100.0)” value was determined as 94.8. Further, the “inhibition by sulphydryl reagents” value with EG V, EG VI and EG VII was “little or no inhibition”. In the assay with EG V, the “EG V activity, Enzyme + reagent (control = 100.0)” value was 92.8 and the “EG V activity, Substrate + reagent (control = 100.0)” value amounted to 261.7.

`O=C[C@H](O)[C@@H](O)[C@H](O[C@@H]1O[C@H](CO)[C@@H](O)[C@H](O)[C@H]1O)[C@H](O)CO` [cellobiose]: the “concentrations that markedly inhibited all three enzymes” value with EG V, EG VI and EG VII was in the range of 50 to 75 mM.

In the case of `OC[C@H]1O[C@@](CO)(O[C@H]2O[C@H](CO)[C@@H](O)[C@H](O)[C@H]2O)[C@@H](O)[C@@H]1O` [sucrose], in the assay with EG V, EG VI and EG VII, the “effect of glycosides/disaccharides on activity of EG V-VII” value (from here on “effect of glycosides/disaccharides”) is recorded as “no apparent effect”.

As for `[Fe+2]` [Fe^2+], the “decrease in activity of EG VI” value in the assay with EG VI was found to be 38.6%. In addition, the “decrease in activity of EG VI” value with EG VI (listed as Fe^3+) is 53.6-59.3%. The “enhancement of EG VII activity by SO4^2− salt relative to corresponding Cl^− salt” value in the assay on EG VII (1 mM) was about 4.5 fold. Also, in the assay on EG VII (1 mM metal ion), the “effect of metal ion on EG VII” value is given as “minimum effects”. Also, in the assay with EG V, EG VI and EG VII (1 mM metal ion), the “decrease in activity of all three enzymes” value was 35.4-88.0% and the “effect of metal ion on activity of all three enzymes” value was “markedly decreased activity”. The “increase in activity of EG V” value in the assay on EG V (1 mM metal ion, relative to control without metal ion) was 20%.

Consider `COc1cc(/C=C/C(=O)O)ccc1O` [ferulic acid], for which the “effect of phenolic substances on enzyme activity” value (from here on “effect of phenolic substances”) in the assay with EG V, EG VI and EG VII is “did not have a marked inhibitory effect”.

As for `O=c1ccc2cc(O[C@@H]3O[C@H](CO)[C@@H](O)[C@H](O)[C@H]3O)c(O)cc2o1` [esculin], the “effect of glycosides/disaccharides” value in the assay on EG V, EG VI and EG VII was “no apparent effect”.

With `Oc1cccc(-c2ccccc2)c1` [m-phenylphenol], the “effect of phenolic substances” value with EG V, EG VI and EG VII is on record as “did not have a marked inhibitory effect”.

In the case of `Oc1cc(O)c2c(c1)O[C@H](c1ccc(O)c(O)c1)[C@H](O)C2` [(−)epicatechin], the “effect of phenolic substances” value with EG V, EG VI and EG VII was “did not have a marked inhibitory effect”.

As to `O=C(O)/C=C/c1ccccc1O` [o-coumaric acid], in the assay with EG V, EG VI and EG VII, the “effect of phenolic substances” value is “did not have a marked inhibitory effect”.

Turning to `O=C(OC[C@H]1O[C@@H](OC(=O)c2cc(O)c(O)c(OC(=O)c3cc(O)c(O)c(O)c3)c2)[C@H](OC(=O)c2cc(O)c(O)c(OC(=O)c3cc(O)c(O)c(O)c3)c2)[C@@H](OC(=O)c2cc(O)c(O)c(OC(=O)c3cc(O)c(O)c(O)c3)c2)[C@@H]1OC(=O)c1cc(O)c(O)c(OC(=O)c2cc(O)c(O)c(O)c2)c1)c1cc(O)c(O)c(OC(=O)c2cc(O)c(O)c(O)c2)c1` [tannic acid], the “effect of phenolic substances” value in the assay with EG V, EG VI and EG VII is given as “potent inhibitor”.

Turning to `COc1cc(C(=O)O)cc(OC)c1O` [syringic acid], the “effect of phenolic substances” value in the assay with EG V, EG VI and EG VII is “did not have a marked inhibitory effect; also recorded: markedly activated”.

`OC[C@@H](O)[C@@H](O)[C@H](O)[C@@H](O)CO` [sorbitol]: in the assay with EG V, EG VI and EG VII, the “effect of glycosides/disaccharides” value is recorded as “no apparent effect”.

Regarding `OC[C@H]1O[C@H](OCC2O[C@@H](O)[C@H](O)[C@@H](O)[C@@H]2O)[C@H](O)[C@@H](O)[C@H]1O` (some centres unmarked) [melibiose], the “effect of glycosides/disaccharides” value in the assay with EG V, EG VI and EG VII is reported as “no apparent effect”.
